Laboratory results published in patent US11964962B2, “Substituted pyridazinone compound and use thereof” (SHANDONG FIRST MEDICAL UNIVERSITY & SHANDONG ACADEMY OF …, priority 2020, dated 2024).

What was measured:
THRα = target: T1, THRα (Homo sapiens, UniProt P10827); test: THRα agonist activity, fluorescence ratio 665 nm/615 nm with EE-RxRα and biotin-GRIP; format: biochemical; conditions: incubated overnight at 4° C.
T1 construct: GST
T1 sequence (P10827 1-410 isoform P10827-2): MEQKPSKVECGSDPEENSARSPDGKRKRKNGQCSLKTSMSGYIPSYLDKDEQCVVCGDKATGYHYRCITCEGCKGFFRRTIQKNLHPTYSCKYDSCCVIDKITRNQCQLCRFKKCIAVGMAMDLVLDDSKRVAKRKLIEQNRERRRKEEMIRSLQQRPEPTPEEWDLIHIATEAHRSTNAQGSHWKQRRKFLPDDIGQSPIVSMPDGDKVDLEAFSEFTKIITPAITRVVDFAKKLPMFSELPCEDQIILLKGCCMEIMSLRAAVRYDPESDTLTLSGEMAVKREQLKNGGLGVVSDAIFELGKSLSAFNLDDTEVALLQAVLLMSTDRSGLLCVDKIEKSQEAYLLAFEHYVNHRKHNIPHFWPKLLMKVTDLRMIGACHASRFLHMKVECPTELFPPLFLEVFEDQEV
T1 sequence (P19793 225-462 partner limits assumed): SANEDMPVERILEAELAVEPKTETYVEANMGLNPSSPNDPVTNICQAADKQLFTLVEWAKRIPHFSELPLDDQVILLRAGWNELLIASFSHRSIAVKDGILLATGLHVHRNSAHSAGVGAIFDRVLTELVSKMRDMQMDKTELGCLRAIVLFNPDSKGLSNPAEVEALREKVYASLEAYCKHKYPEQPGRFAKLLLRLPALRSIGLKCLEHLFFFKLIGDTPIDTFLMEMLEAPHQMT
T1 sequence (Q15596 679-703 partner limits assumed): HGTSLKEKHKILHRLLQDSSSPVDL
Protocol: (§1) Test compound was dissolved and serially diluted in dimethyl sulfoxide (DMSO) with a final compound concentration of 60 mM. […] Buffer 1 was employed again to prepare EE-RxRα at the same concentrations as those of THRα and THRβ, respectively. Buffer 1+5% DMSO was employed to prepare biotin-GRIP (THRα: […], THRβ: 100 nM). Buffer 2 (50 mM Tris, pH 7.4, 100 mM NaCl, and 0.2 mg/mL BSA) was employed to prepare a mixed solution of 2×Eu-anti-GST and 2×streptavidin-d2. 5 μL of the THRα (THRβ) solution+5 μL of EE-RxRα+2.5 μL of the DMSO solution of test compound+2.5 μL of biotin-GRIP+5 μL of the mixed solution of 2×Eu-anti-GST and 2×streptavidin-d2 was employed as the reaction system, and incubated overnight at 4° C.

L929 mouse fibroblasts = test: Cytotoxicity in normal cell line L929 (CCK-8 proliferation assay); format: cell-based; conditions: 48 h treatment, CCK-8, absorbance 450 nm, read-out: IC50 for proliferation of L929 cell lines
Protocol: Concentration of L929 mouse fibroblasts was adjusted to 4×10^5 cells/mL. The cells were seeded in a 96 well plate with […] per well. Wells not supplied with the cells (blank group) were provided. The cells were cultivated on the plate and were allowed to adhere overnight. Then, cell culture supernatants were collected, and 200 μL of test compound at various concentrations were added to the corresponding cell culture supernatants. Control and compound-treated cell culture supernatants were included in each experiment with triplicate wells for each experimental group, and were cultivated for a further 48 h. Then, the resulting cell culture supernatants were again collected, and fresh medium supplemented with 10% CCK-8 solution was added thereto. Incubation for an additional 3 h was carried out. Thereafter, the absorbance of the medium was measured at 450 nm wavelength, and the inhibitory rate of cell proliferation by test compound was calculated according to the equation below: R (%)=1−(Aexperiment−Ablank)/(Acontrol−Ablank)

THRβ = target: T2, THRβ (Homo sapiens, UniProt P10828); test: THRβ agonist activity, fluorescence ratio 665 nm/615 nm with EE-RxRα and biotin-GRIP; format: biochemical; conditions: incubated overnight at 4° C.
T2 construct: GST
T2 sequence (P10828 1-461): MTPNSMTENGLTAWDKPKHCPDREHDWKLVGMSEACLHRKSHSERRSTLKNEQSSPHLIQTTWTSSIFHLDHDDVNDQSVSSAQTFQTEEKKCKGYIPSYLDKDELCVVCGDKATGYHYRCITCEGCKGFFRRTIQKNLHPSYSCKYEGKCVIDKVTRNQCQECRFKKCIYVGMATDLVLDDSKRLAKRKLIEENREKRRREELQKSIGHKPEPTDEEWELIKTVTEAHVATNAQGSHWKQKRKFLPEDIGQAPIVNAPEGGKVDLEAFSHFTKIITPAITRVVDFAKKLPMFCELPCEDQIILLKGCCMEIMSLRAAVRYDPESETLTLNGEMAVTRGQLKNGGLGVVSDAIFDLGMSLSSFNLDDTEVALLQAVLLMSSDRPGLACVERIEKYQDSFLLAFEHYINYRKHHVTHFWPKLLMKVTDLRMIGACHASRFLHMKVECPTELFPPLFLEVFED
T2 sequence (P19793 225-462 partner limits assumed): T1 sequence (P19793 225-462 partner limits assumed)
T2 sequence (Q15596 679-703 partner limits assumed): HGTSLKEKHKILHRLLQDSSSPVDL
Protocol: as §1

| SMILES | EC50 (THRα) [nM] | IC50 (L929 mouse fibroblasts) [nM] | EC50 (THRβ) [nM] |
| --- | --- | --- | --- |
| CC(C)(C)c1cc(Oc2c(Cl)cc(-n3nc(C#N)c(=O)[nH]c3=O)cc2Cl)n[nH]c1=O [Compound 1, 2-(4-((5-(tert-butyl)-6-oxo-1,6-dihydropyridazin-3-yl)oxy)-3,5-dichlorophenyl)-3,5-dioxo-2,3,4,5-tetrahydro-1,2,4-triazine-6-carbonitrile] | 126 | > 50000 | 101 |
| CC(C)(C)c1cc(Oc2ccc(-n3nc(C#N)c(=O)[nH]c3=O)cc2F)n[nH]c1=O [Compound 2, 2-(4-((5-(tert-butyl)-6-oxo-1,6-dihydropyridazin-3-yl)oxy)-3-fluorophenyl)-3,5-dioxo-2,3,4,5-tetrahydro-1,2,4-triazine-6-carbonitrile] | 5380 | > 50000 | 21 |
| CC(C)(C)c1cc(Oc2ccc(-n3nc(C#N)c(=O)[nH]c3=O)cc2Cl)n[nH]c1=O [Compound 3] | 1400 | > 50000 | 810 |
| CC(C)(C)c1cc(Oc2ccc(-n3nc(C#N)c(=O)[nH]c3=O)c(Cl)c2)n[nH]c1=O [Compound 4] | > 60000 | > 50000 | 1570 |
| COc1cc(-n2nc(C#N)c(=O)[nH]c2=O)ccc1Oc1cc(C(C)(C)C)c(=O)[nH]n1 [Compound 5] | 883 | > 50000 | 4900 |
| N#Cc1nn(-c2ccc(Oc3cc(CC4CCCC4)c(=O)[nH]n3)c(Cl)c2)c(=O)[nH]c1=O [Compound 8] | 6150 | > 50000 | 32.6 |
| N#Cc1nn(-c2ccc(Oc3cc(CC4CCCC4)c(=O)[nH]n3)c(Br)c2)c(=O)[nH]c1=O [Compound 9] | 4760 | > 50000 | 642 |
| N#Cc1nn(-c2ccc(Oc3cc(CC4CCCC4)c(=O)[nH]n3)cc2Cl)c(=O)[nH]c1=O [Compound 10] | – | > 50000 | 1520 |
| N#Cc1nn(-c2cc(Cl)c(Oc3cc(CC4CCCC4)c(=O)[nH]n3)cc2Cl)c(=O)[nH]c1=O [Compound 11] | 2140 | > 50000 | 372 |
| COc1cc(-n2nc(C#N)c(=O)[nH]c2=O)ccc1Oc1cc(CC2CCCC2)c(=O)[nH]n1 [Compound 12] | 8680 | > 50000 | 723 |
| N#Cc1nn(-c2ccc(Oc3cc(CC4CCCC4)c(=O)[nH]n3)cc2)c(=O)[nH]c1=O [Compound 13] | > 60000 | > 50000 | 1900 |
| CC(C)Cc1cc(Oc2c(Cl)cc(-n3nc(C#N)c(=O)[nH]c3=O)cc2Cl)n[nH]c1=O [Compound 14] | 3390 | > 50000 | 25.4 |
| CC(C)Cc1cc(Oc2ccc(-n3nc(C#N)c(=O)[nH]c3=O)cc2Br)n[nH]c1=O [Compound 15] | – | > 50000 | 1520 |
| CC(C)(C)Cc1cc(Oc2c(Cl)cc(-n3nc(C#N)c(=O)[nH]c3=O)cc2Cl)n[nH]c1=O [Compound 18] | 2110 | > 50000 | 31.1 |
| CC(C)(C)Cc1cc(Oc2ccc(-n3nc(C#N)c(=O)[nH]c3=O)cc2Cl)n[nH]c1=O [Compound 19] | 11800 | > 50000 | 66.8 |
| CC(C)(C)Cc1cc(Oc2cc(Cl)c(-n3nc(C#N)c(=O)[nH]c3=O)cc2Cl)n[nH]c1=O [Compound 20] | – | > 50000 | 4580 |

| SMILES | EC50 (THRα) [nM] | IC50 (L929 mouse fibroblasts) [nM] | EC50 (THRβ) [nM] |
| --- | --- | --- | --- |
| COc1cc(-n2nc(C#N)c(=O)[nH]c2=O)ccc1Oc1cc(CC(C)(C)C)c(=O)[nH]n1 [Compound 21] | 19900 | > 50000 | 1520 |
| Cc1c(Oc2c(Cl)cc(-n3nc(C#N)c(=O)[nH]c3=O)cc2Cl)n[nH]c(=O)c1C [Compound 22] | 631 | > 50000 | 184 |
| Cc1c(Oc2ccc(-n3nc(C#N)c(=O)[nH]c3=O)cc2F)n[nH]c(=O)c1C [Compound 23] | 4590 | > 50000 | 776 |
| CC(C)c1cc(Oc2ccc(-n3nc(C#N)c(=O)[nH]c3=O)cc2F)n[nH]c1=O [Compound 25] | 14 | > 50000 | 2700 |
| CC(C)c1cc(Oc2ccc(-n3nc(C#N)c(=O)[nH]c3=O)cc2Cl)n[nH]c1=O [Compound 26] | 2070 | > 50000 | 55 |
| CC(C)c1cc(Oc2ccc(-n3nc(C#N)c(=O)[nH]c3=O)cc2Br)n[nH]c1=O [Compound 27] | 2550 | > 50000 | 31.1 |
| CC(C)c1cc(Oc2c(Br)cc(-n3nc(C#N)c(=O)[nH]c3=O)cc2Br)n[nH]c1=O [Compound 28] | 38.1 | > 50000 | 102 |
| CC(C)c1cc(Oc2cc(Cl)c(-n3nc(C#N)c(=O)[nH]c3=O)cc2Cl)n[nH]c1=O [Compound 29] | – | > 50000 | 117 |
| CC(C)c1cc(Oc2ccc(-n3nc(C#N)c(=O)[nH]c3=O)c(Cl)c2)n[nH]c1=O [Compound 30] | > 60000 | > 50000 | 17300 |
| COc1cc(-n2nc(C#N)c(=O)[nH]c2=O)ccc1Oc1cc(C(C)C)c(=O)[nH]n1 [Compound 31] | 5110 | > 50000 | 62.5 |
| N#Cc1nn(-c2ccc(Oc3cc(C4CCCC4)c(=O)[nH]n3)c(F)c2)c(=O)[nH]c1=O [Compound 32] | 18500 | > 50000 | 279 |
| N#Cc1nn(-c2ccc(Oc3cc(C4CCCC4)c(=O)[nH]n3)cc2Cl)c(=O)[nH]c1=O [Compound 33] | – | > 50000 | 7550 |
| N#Cc1nn(-c2cc(Cl)c(Oc3cc(C4CCCC4)c(=O)[nH]n3)cc2Cl)c(=O)[nH]c1=O [Compound 34] | 14 | > 50000 | 3850 |
| CC(C)c1cc(=O)[nH]nc1Oc1cc(Cl)c(-n2nc(C#N)c(=O)[nH]c2=O)cc1Cl [Compound 35] | > 60000 | > 50000 | > 60000 |
| CC(C)(C)Cc1cc(Oc2ccc(-n3cc(C#N)c(=O)[nH]c3=O)c(Cl)c2)n[nH]c1=O [Compound 45] | – | > 50000 | > 60000 |
